Earlier results on two compounds are cited in US6342488B1, “Phosphonorisperidone and sulforisperidone compositions and methods” (priority 1998, dated 2002).

For this data set the following is noted: condition associated with torsades de pointes.

Consider `Cc1nc2n(c(=O)c1CCN1CCC(c3noc4cc(F)ccc34)CC1)CCCC2O` (centres unmarked) [hydroxyrisperidone, 9-hydroxyrisperidone], for which the “prolongation of QT interval” value is listed as “implicated in a prolongation of QT interval”.

Turning to `Cc1nc2n(c(=O)c1CCN1CCC(c3noc4cc(F)ccc34)CC1)CCCC2` [risperidone, Risperidone], the “prolongation of QT interval” value is “implicated in a prolongation of QT interval”.
